Measurements reported in patent publication US10392630B2, “Plants having increased tolerance to herbicides” (BASF AGRO B.V., priority 2013, dated 2019).
Residue numbers refer to the chain shown, from its start.

Assays:
Assay in all cases: biochemical
[1] = molecular target: T1, Amaranthus mutant PPO (AMARE) (Amaranthus tuberculatus, UniProt Q0NZW9, F420L/R128L)
T1 sequence (Q0NZW9 1-534 R128L/F420L): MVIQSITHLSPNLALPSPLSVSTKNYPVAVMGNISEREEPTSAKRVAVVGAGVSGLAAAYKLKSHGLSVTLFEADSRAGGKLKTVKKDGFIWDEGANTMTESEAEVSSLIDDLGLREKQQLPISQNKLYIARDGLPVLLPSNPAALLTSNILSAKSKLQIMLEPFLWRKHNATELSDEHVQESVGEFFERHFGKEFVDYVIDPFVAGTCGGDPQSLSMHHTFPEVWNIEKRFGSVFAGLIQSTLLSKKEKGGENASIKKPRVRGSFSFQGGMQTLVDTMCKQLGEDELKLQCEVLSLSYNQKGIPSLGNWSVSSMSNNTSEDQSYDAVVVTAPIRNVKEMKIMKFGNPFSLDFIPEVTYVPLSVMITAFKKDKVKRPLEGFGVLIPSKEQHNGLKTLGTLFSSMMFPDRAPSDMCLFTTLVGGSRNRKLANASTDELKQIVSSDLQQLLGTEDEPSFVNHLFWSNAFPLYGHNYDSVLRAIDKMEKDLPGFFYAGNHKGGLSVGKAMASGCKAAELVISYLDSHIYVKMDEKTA

[2] = molecular target: T2, Amaranthus mutant PPO (AMARE) (Amaranthus tuberculatus, UniProt Q0NZW7)
T2 sequence (Q0NZW7 1-533): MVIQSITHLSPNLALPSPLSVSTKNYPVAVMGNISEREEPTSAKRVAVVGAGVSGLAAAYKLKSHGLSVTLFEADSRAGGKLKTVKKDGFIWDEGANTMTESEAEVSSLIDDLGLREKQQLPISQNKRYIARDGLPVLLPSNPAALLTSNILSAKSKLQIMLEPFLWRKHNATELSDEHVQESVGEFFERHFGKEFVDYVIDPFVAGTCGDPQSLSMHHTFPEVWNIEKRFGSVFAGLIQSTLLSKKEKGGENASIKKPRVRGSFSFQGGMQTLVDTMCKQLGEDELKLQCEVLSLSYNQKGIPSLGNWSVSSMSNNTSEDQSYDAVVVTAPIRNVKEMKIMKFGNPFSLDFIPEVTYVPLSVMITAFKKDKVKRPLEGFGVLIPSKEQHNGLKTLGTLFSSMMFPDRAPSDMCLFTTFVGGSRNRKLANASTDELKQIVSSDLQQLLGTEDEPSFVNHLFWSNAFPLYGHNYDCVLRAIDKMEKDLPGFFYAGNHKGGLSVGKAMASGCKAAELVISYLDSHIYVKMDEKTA

[3] = molecular target: T3, Amaranthus mutant PPO (AMARE) (Amaranthus tuberculatus, UniProt Q0NZW9, F420L/R128A)
T3 sequence (Q0NZW9 1-534 R128A/F420L): T1 sequence (Q0NZW9 1-534 R128L/F420L) with L128A

[4] = molecular target: T4, Amaranthus mutant PPO (AMARE) (Amaranthus tuberculatus, UniProt Q0NZW9, F420L/R128I)
T4 sequence (Q0NZW9 1-534 R128I/F420L): T1 sequence (Q0NZW9 1-534 R128L/F420L) with L128I

[5] = molecular target: T5, Amaranthus mutant PPO (AMARE) (Amaranthus tuberculatus, UniProt Q0NZW9, F420M/R128L)
T5 sequence (Q0NZW9 1-534 R128L/F420M): T1 sequence (Q0NZW9 1-534 R128L/F420L) with L420M

SMILES: CC(C)N(C)S(=O)(=O)NC(=O)c1cc(-n2c(=O)cc(C(F)(F)F)n(C)c2=O)c(F)cc1Cl [saflufenacil]
- IC50 [1]: > 10000 nM
- IC50 [2]: 1600 nM
- IC50 [3]: > 10000 nM
- IC50 [4]: > 10000 nM
- IC50 [5]: > 10000 nM

SMILES: C#CCN1C(=O)C(F)(F)Oc2cc(F)c(-n3c(=O)n(C)c(=S)n(C)c3=O)cc21 [BAS 850H]
- IC50 [1]: 1710 nM
- IC50 [2]: 2.12 nM
- IC50 [3]: 16.2 nM
- IC50 [4]: 466 nM
- IC50 [5]: 246 nM
